In PubChem BioAssay (NCI) one finds GI50 and TGI data, which are given here for seven compounds.

Values joined by “and” are separate entries in the source; they are usually repeats but may differ in a detail not shown here. Identical values can stand only once.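 How tested: cells in 96-well plates exposed to compound for 48 hours at five concentrations. At the GI50, growth is halved. The concentration for full growth arrest is given as TGI.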

Some test systems named below: MDA-MB-231 breast; SF-295 CNS; M14 melanoma; NCI-H23 lung; MOLT-4 leukemia; A498 renal; HCT-15 colon; MCF7 breast; NCI-H226 lung; SF-539 CNS.
Holding throughout (assay): growth of human tumour cells (NCI), 48 h

As for `COC(C(=O)[C@@H](O)[C@@H](C)O)[C@@H]1Cc2cc3cc(O[C@H]4C[C@@H](O[C@H]5C[C@@H](O)[C@H](O)C(C)O5)[C@H](O)C(C)O4)c(C)c(O)c3c(O)c2C(=O)[C@H]1O[C@H]1C[C@@H](O[C@H]2C[C@@H](O[C@H]3C[C@@H](O)[C@H](OC)C(C)O3)[C@@H](O)C(C)O2)[C@H](O)C(C)O1` (some centres not stated), the GI50 is 0.0691 µM with MDA-MB-231 breast; 14.1 nM with SF-295 CNS; 37.2 nM with M14 melanoma; 18.4 nM in the experiment on NCI-H23 lung; 23.1 nM with MOLT-4 leukemia; 6.14 nM with A498 renal. The GI50 in the experiment on HCT-15 colon was 272 nM; with MCF7 breast, 7.28 nM; with NCI-H226 lung, 0.0209 µM; with SF-539 CNS, 14.2 nM. In addition, the TGI in the experiment with MDA-MB-231 breast is greater than 33.3 µM; with SF-295 CNS, greater than 33.3 µM; in the experiment on M14 melanoma, 0.349 µM; with NCI-H23 lung it was 0.234 µM; with MOLT-4 leukemia it was 0.219 µM; in the experiment on A498 renal, 0.0224 µM. Moreover, the TGI in the experiment on HCT-15 colon is greater than 33.3 µM; in the experiment with MCF7 breast it was greater than 33.3 µM; with NCI-H226 lung, greater than 33.3 µM; in the experiment on SF-539 CNS, 0.101 µM.
In the case of `Cc1ccc(S(=O)(=O)NC(=O)NC2=NC(C)(C)N(c3ccc(Cl)c(Cl)c3)C(N)=N2)cc1`, the TGI with MDA-MB-231 breast, with SF-295 CNS, in the experiment with M14 melanoma, with NCI-H23 lung, with MOLT-4 leukemia and in the experiment on A498 renal was greater than 100 µM throughout. Besides, the TGI with HCT-15 colon, in the experiment on MCF7 breast, in the experiment with NCI-H226 lung and in the experiment on SF-539 CNS was greater than 100 µM in each case.
As to `Cn1cc(-c2ccc(-c3cncc(Cl)c3N3CCC4(CCNC4=O)CC3)cc2)cn1`, the GI50 in the experiment on MDA-MB-231 breast was greater than 100 µM; in the experiment with SF-295 CNS, 66700 nM; with M14 melanoma, 76000 nM; in the experiment on NCI-H23 lung, greater than 100000 nM; in the experiment with MOLT-4 leukemia it was 15500 nM; in the experiment on A498 renal it was 14100 nM. The GI50 is 40100 nM with HCT-15 colon, 38500 nM with MCF7 breast, 65.5 µM with NCI-H226 lung and 27800 nM in the experiment with SF-539 CNS. Further, the TGI in the experiment with MDA-MB-231 breast, in the experiment on SF-295 CNS, in the experiment on M14 melanoma, in the experiment on NCI-H23 lung, with MOLT-4 leukemia and with A498 renal was greater than 100 µM throughout. For the same compound, the TGI in the experiment with HCT-15 colon, in the experiment on MCF7 breast, in the experiment on NCI-H226 lung and in the experiment on SF-539 CNS was greater than 100 µM throughout.
With `N#Cc1ccc(OC(=O)Nc2ccc(Cl)c(Cl)c2)cc1`, the GI50 is 4.42 µM with MDA-MB-231 breast; 2540 nM in the experiment with SF-295 CNS; 4300 nM in the experiment on M14 melanoma; 2790 nM in the experiment on NCI-H23 lung; 3710 nM in the experiment on MOLT-4 leukemia; 1440 nM in the experiment with A498 renal. Also, the GI50 was 2940 nM in the experiment with HCT-15 colon, 2600 nM in the experiment on MCF7 breast, 3.8 µM in the experiment on NCI-H226 lung and 4430 nM with SF-539 CNS. The TGI amounted to 23.3 µM in the experiment with MDA-MB-231 breast; 7.64 µM in the experiment on SF-295 CNS; 59 µM with M14 melanoma; 13.7 µM with NCI-H23 lung; 27.8 µM with MOLT-4 leukemia; 6.92 µM in the experiment on A498 renal. Besides, the TGI was 13.8 µM in the experiment on HCT-15 colon, 11.6 µM in the experiment with MCF7 breast, greater than 100 µM in the experiment on NCI-H226 lung and 33 µM with SF-539 CNS.
`CC/C=C/C/C=C/C/C=C/C/C=C/C/C=C/C/C=C/CCC(=O)Nc1ccn([C@@H]2O[C@H](CO)[C@@H](O)C2(F)F)c(=O)n1`: the GI50 with MDA-MB-231 breast was 7.65 µM; with SF-295 CNS, 110 nM; in the experiment with M14 melanoma it was 30.3 nM; in the experiment on NCI-H23 lung, 19 nM; in the experiment with MOLT-4 leukemia, 80.2 nM; with A498 renal, 56.6 nM. In addition, the values for the GI50 in the experiment on HCT-15 colon, in the experiment on NCI-H226 lung and with SF-539 CNS were 1820 nM, 0.228 µM and 42.5 nM, respectively. Further, the TGI in the experiment on MDA-MB-231 breast was determined as 28.9 µM; in the experiment on SF-295 CNS, 19.8 µM; with M14 melanoma it was 0.212 µM; with NCI-H23 lung it was 9.3 µM; in the experiment with MOLT-4 leukemia, 3.55 µM; in the experiment on A498 renal, 44.4 µM. Moreover, the TGI turned out to be 41.3 µM in the experiment with HCT-15 colon, 17.2 µM in the experiment with MCF7 breast, 12.1 µM with NCI-H226 lung and 5.71 µM in the experiment with SF-539 CNS.
Consider `Nc1nc(N)c2cc(CNc3ccc(C(=O)NC(CC(=O)O)C(=O)O)c(Cl)c3)ccc2n1` (configuration not stated), for which the TGI in the experiment with MDA-MB-231 breast is greater than 500 µM; in the experiment with SF-295 CNS, greater than 500 µM; in the experiment on M14 melanoma, greater than 500 µM; in the experiment on NCI-H23 lung, 64 µM and 491 µM; in the experiment on MOLT-4 leukemia, > 31.6 µM and 316 µM; in the experiment on A498 renal, greater than 500 µM. The TGI in the experiment on HCT-15 colon, in the experiment with MCF7 breast, in the experiment with NCI-H226 lung and with SF-539 CNS was greater than 500 µM throughout. For the same compound, the GI50 with SF-295 CNS, in the experiment with M14 melanoma, in the experiment with NCI-H23 lung, in the experiment with MOLT-4 leukemia, in the experiment with A498 renal and with HCT-15 colon was 50 nM each time. Moreover, the GI50 is greater than 500 µM in the experiment on NCI-H226 lung and 50 nM with SF-539 CNS.
Consider `O=C(OCc1ccc2c(Cl)cc(Cl)c(O)c2n1)N1CCN(C(=O)c2cc3cc(F)ccc3[nH]2)CC1`, for which the GI50 is 1.07 µM with MDA-MB-231 breast; 9490 nM with SF-295 CNS; 675 nM with M14 melanoma; 2250 nM with NCI-H23 lung; 1020 nM with MOLT-4 leukemia; 504 nM in the experiment with A498 renal. Also, the GI50 is 1140 nM in the experiment with HCT-15 colon, 404 nM with MCF7 breast, 45.4 µM with NCI-H226 lung and 403 nM with SF-539 CNS. The TGI in the experiment on MDA-MB-231 breast is greater than 55.6 µM; in the experiment with SF-295 CNS, greater than 100 µM; in the experiment with M14 melanoma, greater than 100 µM; in the experiment with NCI-H23 lung, greater than 100 µM; in the experiment with MOLT-4 leukemia it was greater than 100 µM; with A498 renal, 5.48 µM. Moreover, the TGI in the experiment on HCT-15 colon was greater than 100 µM; with MCF7 breast it was greater than 100 µM; with NCI-H226 lung it was greater than 100 µM; in the experiment on SF-539 CNS, 3.02 µM.
